Consider 42 compounds from US11008301B2, “Piperidinone formyl peptide 2 receptor agonists” (BRISTOL-MYERS SQUIBB COMPANY, priority 2017, dated 2021).

One may read the EC50 as the concentration giving half of the maximal effect.

The structures appear in SMILES notation. Like-named read-outs stand apart in the source and are kept apart here.

In one assay the target is human FPR2 (Homo sapiens (Human), UniProt P25090). The assay can be described thus: FPR2 cyclic adenosine monophosphate (cAMP) assay. Format: cell-based. The conditions noted are these: CHO cells overexpressing human FPR2. The method, then:
(§1) FPR2 and FPR1 Cyclic Adenosine Monophosphate (cAMP) Assays. A mixture of forskolin (5 μM final for FPR2 or 10 μM final for FPR1) and IBMX (200 μM final) were added to 384-well Proxiplates (Perkin-Elmer) pre-dotted with test compounds in DMSO (1% final) at final concentrations in the range of 1.7 nM to 100 μM. Chinese Hamster Ovary cells (CHO) overexpressing human FPR1 or human FPR2 receptors were cultured in F-12 (Ham's) medium supplemented with 10% qualified FBS, 250 μg/ml zeocin and 300 μg/ml hygromycin (Life Technologies). Reactions were initiated by adding 2,000 human FPR2 cells per well or 4,000 human FPR1 cells per well in Dulbecco's PBS (with calcium and magnesium) (Life Technologies) supplemented with 0.1% BSA (Perkin-Elmer). The reaction mixtures were incubated for 30 min at room temperature. The level of intracellular cAMP was determined using the HTRF HiRange cAMP assay reagent kit (Cisbio) according to manufacturer's instruction. Solutions of cryptate conjugated anti-cAMP and d2 flurorophore-labelled cAMP were made in a supplied lysis buffer separately. Upon completion of the reaction, the cells were lysed with equal volume of the d2-cAMP solution and anti-cAMP solution. After a 1-h room temperature incubation, time-resolved fluorescence intensity was measured using the Envision (Perkin-Elmer) at 400 nm excitation and dual emission at 590 nm and 665 nm. A calibration curve was constructed with an external cAMP standard at concentrations ranging from 1 μM to 0.1 pM by plotting the fluorescent intensity ratio from 665 nm emission to the intensity from the 590 nm emission against cAMP concentrations. The potency and activity of a compound to inhibit cAMP production was then determined by fitting to a 4-parametric logistic equation from a plot of cAMP level versus compound concentrations.

For another assay, the target named is human FPR1 (Homo sapiens (Human), UniProt P21462). Nature of the assay: FPR1 cyclic adenosine monophosphate (cAMP) assay. It counts as cell-based. The conditions noted are these: CHO cells overexpressing human FPR1; forskolin 10 μM; inhibition of cAMP production; read-out: hFPR1 cAMP EC50. Here is the method:
as §1
A general note: Cyclic AMP is a second messenger, typically raised through Gs and lowered through Gi signalling.

[1] abbreviates: forskolin 5 μM, inhibition of cAMP production, read-out: hFPR2 cAMP2 EC50.
[2] abbreviates: cAMP assay, read-out: hFPR2 agonist activity EC50 (hFPR2 Assay).

Chain of human FPR2 (P25090 whole entry): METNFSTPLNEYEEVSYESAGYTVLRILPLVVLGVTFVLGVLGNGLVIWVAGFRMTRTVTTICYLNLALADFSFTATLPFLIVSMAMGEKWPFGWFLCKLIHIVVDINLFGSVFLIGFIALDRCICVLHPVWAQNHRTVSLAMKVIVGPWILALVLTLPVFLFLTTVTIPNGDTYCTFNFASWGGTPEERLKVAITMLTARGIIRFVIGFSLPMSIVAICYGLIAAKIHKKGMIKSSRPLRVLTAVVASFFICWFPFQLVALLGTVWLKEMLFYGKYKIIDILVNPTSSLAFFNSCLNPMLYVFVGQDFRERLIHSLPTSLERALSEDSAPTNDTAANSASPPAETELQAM
Chain of human FPR1 (P21462 whole entry): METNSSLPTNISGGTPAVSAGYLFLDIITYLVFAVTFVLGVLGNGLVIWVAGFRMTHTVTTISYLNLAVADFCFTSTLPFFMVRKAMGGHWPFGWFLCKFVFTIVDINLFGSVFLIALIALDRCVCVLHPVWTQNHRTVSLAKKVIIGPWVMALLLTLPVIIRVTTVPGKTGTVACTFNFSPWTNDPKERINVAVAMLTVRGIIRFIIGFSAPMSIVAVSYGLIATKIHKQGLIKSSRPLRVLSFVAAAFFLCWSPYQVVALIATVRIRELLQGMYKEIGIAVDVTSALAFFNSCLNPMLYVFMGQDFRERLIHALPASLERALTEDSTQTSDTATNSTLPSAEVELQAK

Turning to `O=C(Nc1ccc(Cl)cc1)N[C@@H]1CCCN(c2ccc(N3CCC4(CCCO4)CC3)cc2)C1=O` [Example 102], the EC50 on human FPR2 (setting [1]) amounted to 15 nM; on human FPR1, 61 nM.

As for `O=C(Nc1ccc(C(F)(F)F)nc1)N[C@@H]1CCCN(c2ccc(N3CCCCC3=O)cc2F)C1=O` [Example 50], the figures for the EC50 on human FPR2 (setting [1]) and on human FPR1 were 330 nM and greater than 10000 nM, respectively.

`CC(=O)N[C@@H]1CCN(c2ccc(N3CCC[C@@H](NC(=O)Nc4ccc(C(F)(F)F)cc4)C3=O)cc2)C1` [Example 69]: the EC50 at human FPR2 (setting [1]) stood at 14 nM; at human FPR1, 190 nM.

As to `COCC1CCCCN1c1ccc(N2CCC[C@@H](NC(=O)Nc3ccc(C(F)(F)F)nc3)C2=O)cc1` (stereo partly drawn) [Example 15], the half-maximal effective concentration (EC50) was determined as 32 nM on human FPR2 (setting [1]) and 660 nM on human FPR1.

For the compound `O=C(Nc1ccc(C(F)(F)F)cc1)N[C@@H]1CCCN(c2ccc(N3CCCC(CO)C3)nc2)C1=O` (stereo partly drawn) [Example 56], the EC50 amounted to 1.8 nM on human FPR2 (setting [1]) and 45 nM at human FPR1.

On to `O=C(Nc1ccc(C(F)(F)F)cn1)N[C@@H]1CCCN(c2ccc(N3CC4(COC4)C3)cc2)C1=O` [Example 12], for which the figures for the EC50 on human FPR2 (setting [2]), at human FPR2 (setting [1]) and on human FPR1 were 100 to 1000 nM, 380 nM and 5000 nM, respectively.

In the case of `O=C(Nc1ccc(C(F)(F)F)cc1)N[C@@H]1CCCN(c2ccc(N3CCOCC3)nc2)C1=O` [Example 54, (R)-1-(1-(6-Morpholinopyridin-3-yl)-2-oxopiperidin-3-yl)-3-(4-(trifluoromethyl)phenyl)urea], the concentration giving a half-maximal response (EC50) came out at 31 nM on human FPR2 (setting [1]) and 920 nM on human FPR1.

On to `O=C(Nc1ccc(Cl)cc1)N[C@@H]1CCCN(c2ccc(N3C[C@H]4CC[C@@H](C3)O4)cc2F)C1=O` [Example 107], for which the EC50 is 2.6 nM at human FPR2 (setting [1]) and 330 nM at human FPR1.

Take `O=C(Nc1ccc(C(F)(F)F)cc1)N[C@@H]1CCCN(c2ccc(N3C[C@H]4CC[C@@H](C3)O4)nc2)C1=O` [Example 104]: the EC50 stood at 18 nM on human FPR2 (setting [1]) and 630 nM on human FPR1.

For `CN(C)C1CCCN(c2ccc(N3CCC[C@@H](NC(=O)Nc4ccc(C(F)(F)F)cc4)C3=O)cc2)C1` (stereo partly drawn) [Example 77], the EC50 on human FPR2 (setting [1]) came out at 0.18 nM; on human FPR1, 1100 nM.

For the compound `CN(C)C1CCN(c2ccc(N3CCC[C@@H](NC(=O)Nc4ccc(Cl)cc4)C3=O)cc2F)C1` (stereo partly drawn) [Example 83], the figures for the EC50 on human FPR2 (setting [1]) and on human FPR1 were 0.39 nM and 1100 nM, respectively.

Turning to `O=C(Nc1ccc(C(F)(F)F)cc1)N[C@@H]1CCCN(c2ccc(N3CCCCC3=O)cc2)C1=O` [Example 4], the EC50 on human FPR2 (setting [2]) was 10 to 100 nM; at human FPR2 (setting [1]), 28 nM; on human FPR1 it was 410 nM.

In the case of `O=C(Nc1ccc(C(F)(F)F)cc1)N[C@@H]1CCCN(c2ccc(N3CCCC(F)(F)C3)cc2)C1=O` [Example 70], the EC50 on human FPR2 (setting [1]) came out at 2.4 nM; on human FPR1, 67 nM.

Take `COCC1CCCCN1c1ccc(N2CCC[C@@H](NC(=O)Nc3ccc(C(F)(F)F)cc3)C2=O)cc1` (stereo partly drawn) [Example 14]: the EC50 is 2.1 nM on human FPR2 (setting [1]) and 36 nM on human FPR1.

For the compound `CS(=O)(=O)N1CCN(c2ccc(N3CCC[C@@H](NC(=O)Nc4ccc(C(F)(F)F)cc4)C3=O)cc2)CC1` [Example 34], the EC50 was 400 nM on human FPR2 (setting [1]) and 2200 nM on human FPR1.

With `COC[C@@H]1CCCN1c1ccc(N2CCC[C@@H](NC(=O)Nc3ccc(Cl)cc3)C2=O)cc1` [Example 26], the EC50 at human FPR2 (setting [2]) was no more than 10 nM; on human FPR2 (setting [1]), 3.7 nM; on human FPR1 it was 12 nM.

Take `O=C(Nc1ccc(Cl)cc1)N[C@@H]1CCCN(c2ccc(N3C[C@H]4COC[C@H]4C3)cc2)C1=O` [Example 95]: the EC50 on human FPR2 (setting [1]) was found to be 2.5 nM; on human FPR1, 76 nM.

For `CC1(C)CCN(c2ccc(N3CCC[C@@H](NC(=O)Nc4ccc(C(F)(F)F)cc4)C3=O)cc2)CC1` [Example 40], the EC50 at human FPR2 (setting [2]) lay in the range of 10 to 100 nM.

In the case of `O=C(Nc1ccc(C(F)(F)F)cc1)N[C@H]1CCCN(c2ccc(N3CCCC(O)C3)cc2)C1=O` (stereo partly drawn) [Example 32], on human FPR2 (setting [2]), the EC50 fell in the range of 100 to 1000 nM.

With `COC[C@@H]1CCCN1c1ccc(N2CCC[C@@H](NC(=O)Nc3ccc(C(F)(F)F)nc3)C2=O)cc1` [Example 25], at human FPR2 (setting [2]), the EC50 was in the range of 10 to 100 nM.

For the compound `O=C(Nc1ccc(Cl)cc1F)N[C@@H]1CCCN(c2ccc(N3CC[C@@H](F)C3)nc2)C1=O` [Example 105], the EC50 on human FPR2 (setting [2]) was no more than 10 nM.

With `COCC1COCCN1c1ccc(N2CCC[C@@H](NC(=O)Nc3ccc(C(F)(F)F)cc3)C2=O)cc1` (stereo partly drawn) [Example 13], the EC50 on human FPR2 (setting [2]) is no more than 10 nM.

In the case of `O=C(Nc1ccc(C(F)(F)F)cc1)N[C@H]1CCCN(c2ccc(N3CC4(COC4)C3)cc2)C1=O` [Example 9], the EC50 is 100 to 1000 nM at human FPR2 (setting [2]), 540 nM on human FPR2 (setting [1]) and 1500 nM at human FPR1.

For `CN(C)C1CCN(c2ccc(N3CCC[C@@H](NC(=O)Nc4ccc(Cl)cc4F)C3=O)c(F)c2)C1` (stereo partly drawn) [Example 81], the EC50 on human FPR2 (setting [1]) came to 0.31 nM; at human FPR1, 1700 nM.

As for `O=C(Nc1ccc(C(F)(F)F)cc1)N[C@@H]1CCCN(c2ccc(N3CCCCC3)cc2)C1=O` [Example 45], the EC50 on human FPR2 (setting [1]) is 3 nM; at human FPR1, 11 nM.

For `CS(=O)(=O)C1CCN(c2ccc(N3CCC[C@@H](NC(=O)Nc4ccc(Cl)cc4)C3=O)c(F)c2F)C1` (stereo partly drawn) [Example 87], the EC50 on human FPR2 (setting [2]) was no more than 10 nM.

Consider `O=C(Nc1ccc(C(F)(F)F)cc1)N[C@@H]1CCCN(c2ccc(N3C[C@H]4CC[C@@H](C3)O4)cc2)C1=O` [Example 5], for which the EC50 at human FPR2 (setting [2]) is no more than 10 nM.

Turning to `C[C@@H]1COCCN1c1ccc(N2CCC[C@@H](NC(=O)Nc3ccc(C(F)(F)F)cc3)C2=O)cc1` [Example 35], the EC50 on human FPR2 (setting [2]) is no more than 10 nM.

Consider `O=C(Nc1ccc(C(F)(F)F)cn1)N[C@@H]1CCCN(c2ccc(N3CC[C@@H](O)C3)cc2)C1=O` [Example 28], for which the EC50 on human FPR2 (setting [2]) was in the range of 100 to 1000 nM.

For the compound `O=C(Nc1ccc(C(F)(F)F)cc1)N[C@@H]1CCCN(c2ccc(N3CCCC(O)C3)nc2)C1=O` (stereo partly drawn) [Example 60], the EC50 at human FPR2 (setting [2]) was in the range of 10 to 100 nM.

For `COC[C@@H]1CCCN1c1ccc(N2CCC[C@@H](NC(=O)Nc3ccc(C(F)(F)F)cc3)C2=O)cc1` [Example 27], the EC50 at human FPR2 (setting [2]) is 10 to 100 nM.

Regarding `CC1(O)CCCN(c2ccc(N3CCC[C@@H](NC(=O)Nc4ccc(Cl)cc4)C3=O)cc2)C1` (stereo partly drawn) [Example 93], the EC50 at human FPR2 (setting [2]) is no more than 10 nM.

For `O=C(Nc1ccc(C(F)(F)F)cc1)N[C@@H]1CCCN(c2ccc(N3CCCC(F)C3)nc2)C1=O` (stereo partly drawn) [Example 57], the EC50 on human FPR2 (setting [2]) was 10 to 100 nM.

For `O=C(Nc1ccc(C(F)(F)F)nc1)N[C@@H]1CCCN(c2ccc(N3C[C@H]4CC[C@@H](C3)O4)cc2)C1=O` [Example 47], the EC50 on human FPR2 (setting [2]) fell in the range of 100 to 1000 nM.

With `CC(C)[C@@H]1COCCN1c1ccc(N2CCC[C@@H](NC(=O)Nc3ccc(C(F)(F)F)cc3)C2=O)cc1` [Example 39], the EC50 on human FPR2 (setting [2]) was no more than 10 nM.

In the case of `COC1CCN(c2ccc(N3CCC[C@@H](NC(=O)Nc4ccc(C(F)(F)F)cc4)C3=O)cc2)CC1` [Example 30], the EC50 at human FPR2 (setting [2]) was no more than 10 nM.

As to `CC1CCCN(c2ccc(N3CCC[C@@H](NC(=O)Nc4ccc(C(F)(F)F)cc4)C3=O)cc2)C1` (stereo partly drawn) [Example 38], the EC50 on human FPR2 (setting [2]) was no more than 10 nM.

As to `CCN1CCN(c2ccc(N3CCC[C@@H](NC(=O)Nc4ccc(C(F)(F)F)cc4)C3=O)cc2)CC1` [Example 42], the EC50 on human FPR2 (setting [2]) lay in the range of 10 to 100 nM.

Turning to `O=C(Nc1ccc(C(F)(F)F)cc1)N[C@@H]1CCCN(c2ccc(N3CCCC3=O)cc2)C1=O` [Example 2], the EC50 on human FPR2 (setting [2]) is 10 to 100 nM.

For the compound `O=C(Nc1ccc(Cl)cc1F)N[C@@H]1CCCN(c2ccc(N3CC[C@@H](F)C3)c(F)c2F)C1=O` [Example 88], the EC50 at human FPR2 (setting [2]) was no more than 10 nM.

For the compound `COCC1CCCCN1c1ccc(N2CCC[C@@H](NC(=O)Nc3cnc(C(F)(F)F)cn3)C2=O)c(F)c1` (stereo partly drawn) [Example 71], the EC50 on human FPR2 (setting [2]) is no more than 10 nM.

Turning to `O=C(Nc1ccc(C(F)(F)F)cc1)N[C@@H]1CCCN(c2ccc(N3CC4(COC4)C3)cc2)C1=O` [Example 10], at human FPR2 (setting [2]), the EC50 lay within 10 to 100 nM.
